“And” between values parts separate entries of the source, which are not always exact repeats. Identical values can stand only once.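 All cell lines were grown in 96-well plates and treated with compound for 48 hours. GI50 marks 50% less growth. TGI denotes the concentration required for complete inhibition of growth.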
Test system: MDA-MB-468 breast
Assay: DTP human tumour cell line panel, 48 h

| SMILES | GI50 | TGI |
| --- | --- | --- |
| COc1ccc(Cc2cnc(NC(=O)c3sc4ccccc4c3Cl)s2)cc1 | 0.416 µM | > 100 µM |
| N#Cc1c(-c2ccccc2)cc(-c2ccccc2)n(CCCCC(=O)NO)c1=O | 2.51 µM | 11.8 µM |
| CC[C@@H](C(=O)[C@@H](C)[C@@H](O)[C@H](C)[C@@H]1O[C@@H]([C@@H](CC)C(=O)O)CC[C@@H]1C)[C@H]1OC2(C=C[C@@H](O)[C@]3(CC[C@@](C)([C@H]4CC[C@](O)(CC)[C@H](C)O4)O3)O2)[C@H](C)C[C@@H]1C (stereo partly specified) | 0.15 µM | 1.95 µM |
| CC1=C(/C=C/C(C)=C/C=C/C(C)=C/C(=O)Nc2ccc(O)cc2)C(C)(C)CCC1 | 2.22 µM | 8.41 µM |
| c1ccc(-c2nn(-c3ccccc3)[n+](-c3cccc4ccccc34)n2)cc1 | 0.265 µM | 1.77 µM |
| COc1ccc(-c2cc(/C=C3\C(=O)Nc4ccc(OC)cc43)[nH]n2)cc1 | 3.71 µM | > 100 µM |
| CN(C)CCCNc1nccc(-c2c(-c3ccc(F)cc3)nn3cc(C(F)(F)F)ccc23)n1 | 3.03 µM | 7.35 µM |
| N#Cc1c(NC(=O)CN2CCOCC2)sc2c1CCCC2 | > 21.7 µM | > 25 µM |
| Cn1cc(C[C@@H](N)C(=O)O)c2ccccc21 | > 100 µM | > 100 µM |
| COc1cc([C@@H]2c3cc4c(cc3[C@H](O)[C@H]3COC(=O)[C@H]23)OCO4)cc(OC)c1OC | < 0.01 µM | < 0.01 µM |
| C#CCNC(=O)CC[C@]1(C)[C@H]2CC[C@@H]3[C@@H]([C@@](C)(O)CCC=C(C)C)CC[C@@]3(C)[C@]2(C)CC[C@H]1C(=C)C | 33.6 µM | > 100 µM |
| Cc1nc(/N=C(\N)NC(=O)Nc2ccccc2Cl)sc1C | 0.459 µM | 4.67 µM |
| CCO/C=N/C1=C(C#N)C(c2ccc(F)cc2)c2sc3c(CC)cccc3c2O1 (stereo unspecified) | 0.421 µM | 16 µM |
| CC(=O)OC[C@]12CC[C@@H]([C@@H](C)C(N)=O)[C@@H]1[C@H]1CC[C@@H]3[C@@]4(C)CC[C@H](OC(C)=O)C(C)(C)[C@@H]4CC[C@@]3(C)[C@]1(C)CC2 | 3.96 µM | 15.6 µM |
| N#Cc1c(-c2ccc(Cl)cc2)nc(SCc2ccc(F)cc2)nc1N1CCNCC1 | 1.47 µM | 2.88 µM |
| N#Cc1cccc(NC(=O)c2oc3ccccc3c2-c2cnn(-c3ccccc3)c2)c1 | 406 µM | > 500 µM |
| COc1cc(C2CC(c3cc(C)ccc3C)=NN2c2ccc(S(=O)(=O)NC(=O)NCc3ccccc3)cc2)cc(OC)c1OC (stereo unspecified) | 2.32 µM | 5.53 µM |
| COc1c(CNC(=O)CCl)cc2[nH]c(C)cc2c1CNC(=O)CCl | 5.94 µM | 25.9 µM |
| CC[CH2][Sn]([Cl])([Cl])[CH2]CC | 1.92 µM | 6.96 µM |
| COC(=O)[C@H](CC(C)C)NC(=O)NC(=O)NC(=O)CI | 1.97 µM | 4.24 µM |
| CCN(CC)CCCC(Nc1c2ccc(Cl)cc2nc2ccc(OC)cc12)c1ccc(F)cc1 (stereo unspecified) | 1.65 µM | 3.22 µM |
| COc1cccc(C2C3=C(COC3=O)N(CCO)c3cc4c(cc32)OCCO4)c1 (stereo unspecified) | 0.0684 µM | 1.27 µM |
| COC(=O)[C@@]1(C)CC[C@]2(C)CC[C@]3(C)C4=CC=C5C(=CC(=O)C(O)=C5C)[C@]4(C)CC[C@@]3(C)[C@@H]2C1 | 0.165 µM | 0.359 µM |
| CCCN(CCC)CCCNC(=O)c1cc2c(-c3ccc(OC)c(OC)c3)nn(C)c2s1 | 14 µM | 34.5 µM |
| Clc1ccc(-c2nn3ncccc3c2-c2ccnc(Nc3ccccc3)n2)cc1 | 1.19 µM | 9.63 µM |

| SMILES | GI50 | TGI |
| --- | --- | --- |
| COc1ccc(-c2nn(-c3cccc(NC(=O)Nc4cc(C(F)(F)F)cc(C(F)(F)F)c4)c3)cc2-c2ccncc2)cc1Cl | 0.641 µM | 2.89 µM |
| CNC(C)C(=O)N[C@H](C(=O)N1CCC[C@@H]1CN(CCc1ccccc1)C(=O)C(F)(F)F)[C@H](C)OCC#CC#CCO[C@H](C)[C@H](NC(=O)[C@H](C)NC)C(=O)N1CCC[C@H]1CN(CCc1ccccc1)C(=O)C(F)(F)F (stereo partly specified) | < 0.01 µM | 0.0221 µM |
| O=C1/C(=C/c2ccccc2)CCC/C1=C\c1ccccc1 | 3.12 µM | 19.4 µM |
| Nc1ccccc1NC(=O)c1ccc(CN2CCC/C(=C\c3cccc(Cl)c3)C2=O)cc1 | 0.0636 µM | 5.9 µM |
| COc1ccc(C2=C(c3cc(OC)c(OC)c(OC)c3)C(=O)CC2)cc1 | 0.0673 µM |  |
| C#COc1cccc(Nc2ncnc3ncc(NC(=O)CCl)cc23)c1 | > 35.4 µM | > 62.5 µM |
| COC(=O)Nc1nc2cc3c(cc2s1)OCCO3 | 29.2 µM | > 50 µM |
| C=C1CCC2C3(C)COC(c4ccc(SC)cc4)OC3CCC2(C)C1C/C=C1/C(=O)OCC1O (stereo unspecified) | 5.34 µM | 18.3 µM |
| CC[C@H](C)n1cc(C)c2c(C(=O)NCc3c(C)cc(C)[nH]c3=O)cc(-c3ccc(N4CCNCC4)nc3)cc21 | 2.15 µM and 5.09 µM | 7.63 µM and 18.7 µM |
| COc1ccc(/C=C\c2cc(OC)c(OC)c(OC)c2)cc1OC(=O)c1cccc(Cn2cc(CCOC(=O)c3cccc(Cn4nnc5c4C(=O)c4ccccc4C5=O)c3)nn2)c1 | < 0.0138 µM |  |
| Oc1cc(O)c2c(=S)cc(-c3ccc(Cl)cc3)oc2c1 | 0.26 µM | 3.1 µM |
| CCOc1ccc(/C=C/[N+](=O)[O-])cc1 | 1.97 µM | 3.97 µM |
| CCCCN(CCCC)CCCN=c1nc2c(c(N)n1-c1ccccc1)c(=S)n(-c1ccccc1)c(=S)n2-c1ccccc1 | 0.218 µM | 0.518 µM |
| CC1=C([Se]CC(OC(=O)[C@@H](CO)NC(=O)OC(C)(C)C)C(=O)NC(C)(C)C)C(=O)c2ccccc2C1=O (stereo partly specified) | 0.759 µM | 2.29 µM |
| CN1CCN(Cc2ccc(NC(=O)c3ccc(C#N)c(C#Cc4cnc(N)c5ncccc45)c3)cc2C(F)(F)F)CC1 | 16.9 µM | 63.5 µM |
| O=C1/C(=C\c2coc3ccccc3c2=O)c2ccccc2N1c1c(Cl)cccc1Cl | 2.44 µM | 13.1 µM |
| N#CN1CCC[C@H]1C(=O)N1CCc2c(-c3[nH]nc4ncccc34)cccc21 | < 0.01 µM | < 0.01 µM |
| OC(COc1cccc2ccccc12)CN1CCN(c2ccccc2)CC1 (stereo unspecified) | 16.6 µM | 31.1 µM |
| Cc1cc(-c2nc(-c3ccc(OC(F)(F)F)cc3)no2)nn1Cc1ccnc(N2CCN(C3CC3)CC2)c1 | < 0.01 µM | 5.68 µM |
| C/C(=C\CCc1ccoc1)CC/C=C(\C)CCCN1CCC(CO)CC1 | 1.7 µM | 4.45 µM |
| COc1ccc(/C=C/c2cc(N3CCOCC3)c3cc(F)c(F)cc3n2)cc1OC | 0.277 µM | 1.64 µM |
| C=CCN(/C=C1\C(=O)O[C@H](COC)[C@@]2(C)C1=C(O)C(=O)C1=C2[C@H](OC(C)=O)C[C@]2(C)C(=O)CC[C@@H]12)CC=C | 0.0778 µM | 0.649 µM |
| CNc1ccc(-c2cc(=O)oc3ccc(Cl)cc23)cc1 | 0.219 µM and 0.0841 µM | 0.926 µM and 0.877 µM |
| COc1cc([C@@H]2c3cc4c(cc3[C@@H](O[C@@H]3O[C@@H]5CO[C@@H](c6cccs6)O[C@H]5[C@H](O)[C@H]3O)[C@H]3COC(=O)[C@H]23)OCO4)cc(OC)c1O | 0.186 µM | 0.537 µM |
